Key:
ER proteostasis factors = experiment: RNAseq expression of 124 proteostasis factors; type: cell-based, human
Procedure: Cells were lysed and total RNA collected using the RNeasy mini kit, according to manufacturer's instructions (Qiagen). Conventional RNA-seq was conducted via BGI Americas on the BGI Proprietary platform, providing single-end 50 bp reads at 20 million reads per sample. Alignment of sequencing data was done using DNAstar Lasergene SeqManPro to the GRCh37. p 13 human genome reference assembly, and assembly data were imported into ArrayStar 12.2 with QSeq (DNAStar Inc.) to quantify the gene expression levels and normalization to reads per kilobase per million (RPKM). Differential expression analysis and statistical significance calculations between different conditions was assessed using “DESeq” in R, compared to vehicle-treated cells, using a standard negative binomial fit of the RPKM data to generate Fold Change quantifications.
One of the mechanisms by which IRE1/XBP1s activation is protective is through the targeted transcriptional remodeling of ER proteostasis pathways. Because it was observed that compounds such as 474 and 970 selectively activate IRE1/XBP1s signaling, it was desired to confirm that these compounds similarly promote targeted ER proteostasis network remodeling. […]

[1] = test system: Diet-Induced Obese (DIO) mice; experiment: Glucose tolerance, serum glucose and insulin in DIO mice; type: in vivo, mouse; conditions: 4 weeks of dosing
Description: (§1) FIGS. 8A-8E. Oral glucose tolerance test in DIO mice treated with either Vehicle or 474 for 3 weeks (n=8) (FIG. 8A). Serum glucose and insulin levels post 4 weeks of dosing with 474 or vehicle (FIG. 8B). Glucose stimulated insulin secretion in islets isolated from 474 or vehicle treated mice. (FIG. 8C). Hepatic triglyceride content (FIG. 8D) and gene expression profiles of gluconeogenic genes (FIG. 8E) at 6 weeks post dosing.
(§2) To test the efficacy of pharmacologic IRE1 activation in mitigating T2D, we chronically administered 474 by once-daily IP injections at 50 mg/kg for a period of 6 weeks to Diet-Induced Obese (DIO) mice, a model of T2D.
(§3) This effect can be rationalized, at least in part, by enhanced pancreatic f-cell function in 474-treated […], as shown by our studies in isolated pancreatic islets from vehicle- and 474-treated mice. […] Given the well-documented link between IRE1 and hepatic metabolism in T2D^55, we also examined markers of liver function after 474 treatment. We found reduced liver triglyceride accumulation in 474-treated mice relative to controls (FIG. 80).

IRE1 target genes = experiment: Liver RNA sequencing of DIO mice, IRE1 targets; type: in vivo, mouse; conditions: once-daily IP 50 mg/kg, 6 weeks
Procedure: (§4) FIGS. 7A-7D. RT-PCR of Xbp1s and the IRE1/XBP1s target gene Erdj4 from adipose tissue post single IP dose of 474 (FIG. 7A). Liver RNAseq profiles of ATF6, IRE1 and PERK target genes expressed as log 2 fold change of chronic 474 treatment compared to vehicle (FIG. 7B). Body weight (FIG. 7C) and food intake (FIG. 70) over 6 weeks of dosing.
as §2

ATF6 target genes = experiment: Liver RNA sequencing of DIO mice, ATF6 targets; type: in vivo, mouse; conditions: once-daily IP 50 mg/kg, 6 weeks
Procedure: as §4, §2

[2] = test system: IRE1-specific target genes; experiment: RT-PCR of Xbp1s and Erdj4 in adipose tissue after single IP dose; type: in vivo
Description: as §4
Obesity has grown into a major public health crisis over the past few decades, enhancing the risk of numerous complications such as type 2 diabetes (T2D). […] of Xbp1, the key transcription factor downstream of IRE1, causes insulin resistance through increased accumulation of ER stress^33. Conversely, overexpression of active Xbp1s in the livers of ob/ob mice restores insulin signaling and reduces gluconeogenesis through the targeted degradation of a key metabolic regulator, FoxO1^55. IRE1 function is also critical in the maintenance of pancreatic β-cell function and glucose stimulated-insulin secretion^56. Although these genetic studies highlight the therapeutic potential of targeting the IRE1-XBP1s signaling axis for T2D and related metabolic disorders, no highly-selective pharmacological IRE1 activators have been available until the present disclosure's provision for screening and optimization of a lead molecule, 474.

APP = APP immunoblots of lysates and conditioned media of CHO 7PA2 cells; type: cell-based; conditions: CHO 7PA2, 10 μM
Procedure: FIGS. 5A-5D. […] Cells were treated for 18 hours, media was then replaced and conditioned in the presence of treatments for 24 hours before harvesting for ELISA assay. Error bars represent SEM for n=3 replicates. Statistics calculated from one-tailed Student's t-test. *p<0.05, **p<0.01, ***p<0.001 (FIG. 5A). Quantification of media and lysate immunoblots from 474 treatment (10 μM) of APP. Error bars represent Standard Deviation for n=3 replicates. Statistics calculated from one-tailed Student's t-test. *p<0.05, **p<0.01 ***p<0.001 (FIG. 5B). Plot showing fraction of total remaining APP at each time point after S35 metabolic labeling of newly synthesized protein, accounting for the sum of APP in lysate and media. Error bars represent Standard Deviation for n=3 replicates. Statistics calculated from one-tailed Student's t-test. *p<0.05, **p<0.01, ***p<0.001 (FIG. 5C). Plot showing fraction of secreted APP collected at 2 hours after metabolic labeling. Error bars represent Standard Deviation for n=3 replicates. Statistics calculated from one-tailed Student's t-test. *p<0.05, **p<0.01, ***p<0.001 (FIG. 5D). […]

PERK target genes = experiment: Liver RNA sequencing of DIO mice, PERK targets; type: in vivo, mouse; conditions: once-daily IP 50 mg/kg, 6 weeks
Procedure: as §4, §2

liver = experiment: Hepatic triglyceride content and gluconeogenic gene expression in DIO mice; type: in vivo, mouse; conditions: 6 weeks post dosing
Description: as §1, §3

**Q.** How did the “remodeling of ER proteostasis factors relative to other compartments” value (ER proteostasis factors) turn out when O=C(CN(Cc1ccc(Cl)cc1)S(=O)(=O)c1cccnc1)N1CCc2ccccc21 [Compound 970] was run?
**A.** The value was “selective remodeling”.

**Q.** How did the basal insulin levels [1] turn out when Cc1ccc(OCCN(C)C(=O)Cn2cc(NC(=O)CCOc3ccccc3)cn2)cc1 [Compound 474] was run?
**A.** The basal insulin levels was “more prominent decrease”.

**Q.** What about the fasting glucose [1] of the same compound?
**A.** The fasting glucose was “significant reduction”.

**Q.** And the “remodeling of ER proteostasis factors relative to other compartments” value (ER proteostasis factors)?
**A.** The value was “selective remodeling”.

**Q.** What about the “Xbp1 splicing in liver” value (IRE1 target genes) of the same compound?
**A.** The value was “robust Xbp1splicing”.

**Q.** And the “downstream IRE1 targets in liver” value (IRE1 target genes)?
**A.** Its value is “selective activation”.

**Q.** And the “ATF6 transcriptional response in liver” value (ATF6 target genes)?
**A.** Its value is “modest induction”.

**Q.** What about the “IRE1-specific target genes in adipose tissue” value [2] of the same compound?
**A.** The value was “induction”.

**Q.** And the bioavailability [2]?
**A.** The bioavailability was “readily bioavailable”.

**Q.** And the “APP levels in lysates and conditioned media” value (APP)?
**A.** Its value is “reduced APP levels in both lysates and conditioned media”.

**Q.** And the “PERK target genes in liver” value (PERK target genes)?
**A.** Its value is “no induction”.

**Q.** What about the “expression of genes associated with glucose metabolism in liver” value (liver) of the same compound?
**A.** Its value is “reductions”.

**Q.** What about the liver triglyceride accumulation (liver; relative to controls) of the same compound?
**A.** Its liver triglyceride accumulation is “reduced”.

Reference: patent US11426402B2, “IRE1 activating compounds for use in therapy” (The Scripps Research Institute, priority 2019, dated 2022)
